Holding throughout (format): in vivo
One test relates to Polygonum convolvulus. Nature of the test: Post-emergence herbicidal action, POLCO. The method, boiled down: (§1)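 Percent herbicidal effect was rated visually about 3 weeks after treatment, relative to untreated plants (0% = like control, 100% = dead). Compounds, formulated as WP or EC, went on as aqueous spray (600–800 l/ha, 0.2% wetting agent) to one-leaf-stage plants 2–3 weeks post-sowing in sandy loam.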

For a further test, the system named is Amaranthus retroflexus. The experiment in a line: Post-emergence herbicidal action, AMARE. The arrangement: key: % herbicidal action vs untreated; 100 = plants died, 0 = like control. The method, boiled down:
as §1

For a further test, the system named is Pharbitis purpurea. Nature of the test: Pre-emergence herbicidal action, PHBPU. The note with it: dosage 320 g/ha, scored visually after 3 weeks vs untreated controls (100% = plants have died). The method, boiled down:
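Seeds were covered with sandy loam soil, then received a pre-emergence surface spray of the WP- or EC-formulated compound. After 3 weeks under good greenhouse growth conditions, damage was scored visually in percent.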

The subject of another test is Cyperus esculentus. The experiment in a line: Post-emergence herbicidal action, CYPES. On the set-up: key: % herbicidal action vs untreated; 100 = plants died, 0 = like control. The method, boiled down:
as §1

`CCn1nnnc1NC(=O)c1ccc(C)c(CSC)c1Cl` [Example 2-287]: in the test on Polygonum convolvulus (Dosage 80 g/ha), the “herbicidal action POLCO” value is 80. The “herbicidal action AMARE” value in the test on Amaranthus retroflexus (Dosage 80 g/ha) turned out to be 90.

With `CSCc1c(C(F)F)ccc(C(=O)Nc2nnnn2C)c1C` [Example 1-107, 4-(difluoromethyl)-2-methyl-3-[(methylsulfanyl)methyl]-N-(1-methyl-1H-tetrazol-5-yl)benzamide], the “herbicidal activity PHBPU” value with Pharbitis purpurea amounted to 90%. The “herbicidal action POLCO” value with Polygonum convolvulus (Dosage 80 g/ha) is recorded as 90. The “herbicidal action AMARE” value with Amaranthus retroflexus (Dosage 80 g/ha) is 90.

On to `CCCn1nnnc1NC(=O)c1ccc(C(F)(F)F)c(C[S+](C)[O-])c1Cl` (centres unmarked) [Example 3-297], for which, in the test on Pharbitis purpurea, the “herbicidal activity PHBPU” value is given as 80%. Further, the “herbicidal action CYPES” value in the test with Cyperus esculentus (post-emergence, dosage 80 g/ha) is recorded as 80%. In the test on Polygonum convolvulus (post-emergence, dosage 80 g/ha), the “herbicidal action POLCO” value was 80%. Besides, the “herbicidal action AMARE” value with Amaranthus retroflexus (post-emergence, dosage 80 g/ha) is 100%.

As for `CCn1nnnc1NC(=O)c1ccc(C(F)(F)F)c(CS(C)(=O)=O)c1OC` [Example 2-136], in the test on Amaranthus retroflexus (Dosage 80 g/ha), the “herbicidal action AMARE” value is 100.

Take `Cn1nnnc1NC(=O)c1ccc(C(F)(F)F)c(C[S+](C)[O-])c1F` (centres unmarked) [Example 1-243]: the “herbicidal activity PHBPU” value in the test on Pharbitis purpurea is listed as 80%. In addition, the “herbicidal action AMARE” value in the test with Amaranthus retroflexus (Dosage 80 g/ha) stood at 90.

With `CCCn1nnnc1NC(=O)c1ccc(C(F)(F)F)c(CSC)c1Br` [Example 3-380], the “herbicidal activity PHBPU” value with Pharbitis purpurea is on record as 90%. In addition, the “herbicidal action POLCO” value in the test on Polygonum convolvulus (Dosage 80 g/ha) was 90.

On to `CCCn1nnnc1NC(=O)c1ccc(C(F)F)c(CSC)c1C` [Example 3-107], for which the “herbicidal action POLCO” value in the test on Polygonum convolvulus (Dosage 80 g/ha) is 90. Moreover, the “herbicidal action AMARE” value in the test on Amaranthus retroflexus (Dosage 80 g/ha) amounted to 90.

As for `Cc1ccc(C(=O)Nc2nnnn2C)c(Cl)c1CS(C)(=O)=O` [Example 1-289], the “herbicidal action AMARE” value in the test on Amaranthus retroflexus (Dosage 80 g/ha) was determined as 100.

Take `Cn1nnnc1NC(=O)c1ccc(C(F)(F)F)c(CS(C)(=O)=O)c1F` [Example 1-244]: the “herbicidal activity PHBPU” value in the test on Pharbitis purpurea was 90%. Also, the “herbicidal action AMARE” value in the test with Amaranthus retroflexus (Dosage 80 g/ha) is 90.

Regarding `CCn1nnnc1NC(=O)c1ccc(C(F)(F)F)c(C[S+](C)[O-])c1OC` (centres unmarked) [Example 2-135], the “herbicidal action POLCO” value in the test on Polygonum convolvulus (Dosage 80 g/ha) worked out at 90. The “herbicidal action AMARE” value in the test with Amaranthus retroflexus (Dosage 80 g/ha) is recorded as 100.

Consider `CCn1nnnc1NC(=O)c1ccc(C(F)(F)F)c(CS(C)(=O)=O)c1SC` [Example 2-163], for which the “herbicidal activity PHBPU” value with Pharbitis purpurea worked out at 90%. For the same molecule, the “herbicidal action POLCO” value in the test with Polygonum convolvulus (Dosage 80 g/ha) is on record as 90. The “herbicidal action AMARE” value with Amaranthus retroflexus (Dosage 80 g/ha) was found to be 100.

As to `CCCn1nnnc1NC(=O)c1ccc(C(F)(F)F)c(CS(=O)(=O)CC)c1C` [Example 3-88], the “herbicidal activity PHBPU” value in the test with Pharbitis purpurea worked out at 90%. For the same molecule, the “herbicidal action POLCO” value with Polygonum convolvulus (Dosage 80 g/ha) was determined as 90. Besides, the “herbicidal action AMARE” value in the test on Amaranthus retroflexus (Dosage 80 g/ha) is 80.

As to `CCCn1nnnc1NC(=O)c1ccc(C(F)(F)F)c(CSC)c1OC` [Example 3-134], the “herbicidal action POLCO” value in the test on Polygonum convolvulus (Dosage 80 g/ha) worked out at 90. Further, the “herbicidal action AMARE” value in the test with Amaranthus retroflexus (Dosage 80 g/ha) was found to be 100.

With `Cn1nnnc1NC(=O)c1ccc(C(F)(F)F)c(CS(C)(=O)=O)c1Br` [Example 1-382, 2-bromo-3-[(methylsulfonyl)methyl]-N-(1-methyl-1H-tetrazol-5-yl)-4-(trifluoromethyl)benzamide], in the test with Polygonum convolvulus (Dosage 80 g/ha), the “herbicidal action POLCO” value was found to be 90. Moreover, the “herbicidal action AMARE” value with Amaranthus retroflexus (Dosage 80 g/ha) worked out at 100.

Regarding `Cc1c(C(=O)Nc2nnnn2C)ccc(C(F)F)c1CS(C)(=O)=O` [Example 1-109], the “herbicidal activity PHBPU” value in the test on Pharbitis purpurea is recorded as 80%. Besides, in the test on Cyperus esculentus (Dosage 80 g/ha), the “herbicidal action CYPES” value stood at 80. Besides, the “herbicidal action AMARE” value in the test with Amaranthus retroflexus (Dosage 80 g/ha) is reported as 100. The “Herbicidal action against AMARE” value in the test with Amaranthus retroflexus (comparative experiment, post-emergence, 5 g of a.i./ha) was found to be 100.

`CCn1nnnc1NC(=O)c1ccc(S(C)(=O)=O)c(CS(C)(=O)=O)c1C` [Example 2-39]: the “herbicidal action CYPES” value in the test with Cyperus esculentus (Dosage 80 g/ha) is 80. Moreover, the “herbicidal action AMARE” value in the test on Amaranthus retroflexus (Dosage 80 g/ha) is 100.

For `CCCn1nnnc1NC(=O)c1ccc(C(F)F)c(CSC)c1Cl` [Example 3-320], the “herbicidal action POLCO” value with Polygonum convolvulus (Dosage 80 g/ha) is given as 90. In addition, in the test on Amaranthus retroflexus (Dosage 80 g/ha), the “herbicidal action AMARE” value came to 80.

As to `CCS(=O)(=O)Cc1c(C(F)(F)F)ccc(C(=O)Nc2nnnn2C)c1Cl` [Example 1-301], the “herbicidal activity PHBPU” value in the test on Pharbitis purpurea came to 100%. Moreover, the “herbicidal action POLCO” value in the test on Polygonum convolvulus (Dosage 80 g/ha) came out at 100. In addition, the “herbicidal action AMARE” value in the test with Amaranthus retroflexus (Dosage 80 g/ha) is recorded as 80.

In the case of `CSCc1c(C(F)(F)F)ccc(C(=O)Nc2nnnn2C)c1F` [Example 1-242], the “herbicidal action CYPES” value in the test on Cyperus esculentus (Dosage 80 g/ha) was 80. Also, the “herbicidal action AMARE” value in the test on Amaranthus retroflexus (Dosage 80 g/ha) is on record as 100.

With `CCCn1nnnc1NC(=O)c1ccc(C(F)(F)F)c(C[S+](C)[O-])c1Br` (centres unmarked) [Example 3-381], the “herbicidal action CYPES” value in the test with Cyperus esculentus (post-emergence, dosage 80 g/ha) stood at 90%. Further, the “herbicidal action POLCO” value in the test with Polygonum convolvulus (post-emergence, dosage 80 g/ha) was determined as 80%. The “herbicidal action AMARE” value with Amaranthus retroflexus (post-emergence, dosage 80 g/ha) was determined as 90%.

With `CCSCc1c(C(F)(F)F)ccc(C(=O)Nc2nnnn2C)c1C` [Example 1-86], the “herbicidal activity PHBPU” value with Pharbitis purpurea amounted to 80%. Moreover, the “herbicidal action CYPES” value in the test with Cyperus esculentus (post-emergence, dosage 80 g/ha) is given as 80%. Besides, the “herbicidal action POLCO” value in the test on Polygonum convolvulus (post-emergence, dosage 80 g/ha) amounted to 80%. In addition, the “herbicidal action AMARE” value with Amaranthus retroflexus (post-emergence, dosage 80 g/ha) was determined as 80%.

Take `CCCn1nnnc1NC(=O)c1ccc(C(F)F)c(C[S+]([O-])CC)c1Cl` (centres unmarked) [Example 3-324]: the “herbicidal activity PHBPU” value in the test on Pharbitis purpurea was determined as 90%. Also, the “herbicidal action CYPES” value in the test with Cyperus esculentus (Dosage 80 g/ha) is given as 90. In the test with Polygonum convolvulus (Dosage 80 g/ha), the “herbicidal action POLCO” value is 100.

Take `C=CCSCc1c(C(F)(F)F)ccc(C(=O)Nc2nnnn2C)c1Cl` [Example 1-308]: the “herbicidal activity PHBPU” value in the test with Pharbitis purpurea is given as 100%. Also, the “herbicidal action CYPES” value in the test with Cyperus esculentus (post-emergence, dosage 80 g/ha) amounted to 90%. The “herbicidal action POLCO” value in the test with Polygonum convolvulus (post-emergence, dosage 80 g/ha) is on record as 90%. The “herbicidal action AMARE” value in the test with Amaranthus retroflexus (post-emergence, dosage 80 g/ha) was 100%.

Regarding `CCCn1nnnc1NC(=O)c1ccc(C(F)(F)F)c(CS(C)(=O)=O)c1OC` [Example 3-136], the “herbicidal action POLCO” value in the test on Polygonum convolvulus (Dosage 80 g/ha) was found to be 80. The “herbicidal action AMARE” value in the test on Amaranthus retroflexus (Dosage 80 g/ha) turned out to be 100.

Turning to `CCn1nnnc1NC(=O)c1ccc(C(F)F)c(CSC)c1C` [Example 2-107], in the test with Polygonum convolvulus (Dosage 80 g/ha), the “herbicidal action POLCO” value worked out at 90. Besides, the “herbicidal action AMARE” value in the test on Amaranthus retroflexus (Dosage 80 g/ha) is 90.

(Values after US12492173B2, “Herbicidal substituted N-tetrazolyl aryl carboxamides” (Bayer Aktiengesellschaft, priority 2019, dated 2025).)
